Test results as given in patent publication US20050075619A1, “Container for linezolid intravenous solution” (priority 2000, published 2005).

Experiment: loss of linezolid in IV aqueous solution during and following terminal moist heat sterilization in the container
Type: physicochemical
Settings: container-solution contact surface made of at least 50% polyolefin
Method: The linezolid IV solution is formulated by heating water for injection from about 50 to about 65°. Next the sodium citrate, citric acid and dextrose are added and stirred until dissolved. An aqueous slurry of linezolid is added to the previous mixture and stirred until dissolved. The mixture is cooled to 25° with stirring. The pH is measured and adjusted if necessary. Last the mixture is brought to volume, if necessary, with water for injection. The mixture is filtered, filled into infusion containers, over wrapped and terminally moist heat sterilized.
When terminally moist heat sterilizing an IV solution, the solution is placed in the container in which (1) it will be stored and then transferred to the container from which it will ultimately be administered, or (2) stored and then ultimately administered from the same container to deliver the IV solution to the patient. Therefore, it is imperative that the pharmaceutically active ingredient (oxazolidinone, linezolid) not react with the container in which it is to be terminally moist heat sterilized and stored/stored-administered.
What is essential is that the container-solution contact surface material be primarily a polyolefin; the remainder of the container can be made from polyolefin or other materials. It is preferred that the container-solution contact surface is made of from about 50 to about 100% polyolefin. […]

CC(=O)NC[C@H]1CN(c2ccc(N3CCOCC3)c(F)c2)C(=O)O1 [linezolid, (S)-N-[[3-[3-fluoro-4-(4-morpholinyl)phenyl]-2-oxo-5-oxazolidinyl]methyl]acetamide]
loss of linezolid during and following terminal moist heat sterilization: significantly much less loss
